Experimental data taken from ChEMBL document CHEMBL4257082, “Nhe3-binding compounds and methods for inhibiting phosphate transport” (2016).
Calls of active or inactive are those of the source. No cut-off for these calls is given here.

Experiments:
[1] = Oral bioavailability in human; format: ADME, organism-based; conditions: in vivo
Homo sapiens = organism: Homo sapiens; experiment: Selectivity ratio of IC50 for NHE3 (unknown origin) to IC50 for NHE1 (unknown origin)
Rattus norvegicus [2] = experiment: In vivo inhibition of NHE3 in rat assessed as inhibition of 33Pi uptake at 10 mg/kg, po measured up to 120 mins; format: functional, organism-based
Rattus norvegicus [3] = experiment: Decrease in calcium urinary excretion in dietary salt-induced partial renal ablation Sprague-Dawley rat model of chronic kidney disease at 0.1 to 3 mg/kg/day added to normal chow pellets; format: functional, organism-based
Rattus norvegicus [4] = experiment: Decrease in phosphorus urinary excretion in dietary salt-induced partial renal ablation Sprague-Dawley rat model of chronic kidney disease at 0.1 to 3 mg/kg/day added to normal chow pellets; format: functional, organism-based
Rattus norvegicus [5] = experiment: In vivo inhibition of NHE3 in Sprague-Dawley rat assessed as inhibition of sodium absorption from intestinal lumen by measuring urinary sodium concentration at 10 mg/kg, po via gavage measured after 16 hrs relative to control; format: functional; parameters: scale not given: the % may be the effect or the level left
Rattus norvegicus [6] = experiment: In vivo inhibition of NHE3 in Sprague-Dawley rat assessed as inhibition of sodium absorption from intestinal lumen by measuring urinary sodium concentration at 1 mg/kg, po via gavage measured after 16 hrs relative to control; format: functional; parameters: scale not given: the % may be the effect or the level left
Rattus norvegicus [7] = experiment: In vivo inhibition of NHE3 in Sprague-Dawley rat assessed as inhibition of sodium absorption from intestinal lumen by measuring urinary sodium concentration at 3 mg/kg, po via gavage measured after 16 hrs relative to control; format: functional; parameters: scale not given: the % may be the effect or the level left
[8] = biological target: T1, Sodium/hydrogen exchanger 2 (Oryctolagus cuniculus, UniProt P50482); experiment: Inhibition of rabbit NHE2
T1 sequence (P50482 whole entry): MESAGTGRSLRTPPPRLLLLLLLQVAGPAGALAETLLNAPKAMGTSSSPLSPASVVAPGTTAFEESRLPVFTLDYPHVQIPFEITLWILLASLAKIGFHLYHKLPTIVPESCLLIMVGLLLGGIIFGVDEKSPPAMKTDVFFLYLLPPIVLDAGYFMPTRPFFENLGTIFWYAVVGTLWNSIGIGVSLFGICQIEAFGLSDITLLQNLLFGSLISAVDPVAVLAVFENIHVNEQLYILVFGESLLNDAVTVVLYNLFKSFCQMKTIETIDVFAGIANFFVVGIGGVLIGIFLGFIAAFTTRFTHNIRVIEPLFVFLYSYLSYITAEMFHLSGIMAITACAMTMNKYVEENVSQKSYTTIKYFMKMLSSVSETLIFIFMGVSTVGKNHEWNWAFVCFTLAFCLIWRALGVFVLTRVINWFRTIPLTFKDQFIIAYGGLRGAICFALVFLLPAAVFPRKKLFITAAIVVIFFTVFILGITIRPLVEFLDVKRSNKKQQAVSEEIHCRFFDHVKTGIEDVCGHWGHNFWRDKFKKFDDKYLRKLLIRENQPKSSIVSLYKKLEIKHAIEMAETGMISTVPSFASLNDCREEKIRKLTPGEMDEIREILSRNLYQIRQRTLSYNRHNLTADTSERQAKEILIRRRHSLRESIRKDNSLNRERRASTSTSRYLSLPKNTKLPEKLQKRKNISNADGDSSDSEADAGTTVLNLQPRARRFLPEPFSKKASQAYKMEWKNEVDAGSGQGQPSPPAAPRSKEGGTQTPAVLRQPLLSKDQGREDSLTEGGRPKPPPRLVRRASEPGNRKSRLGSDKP

[9] = biological target: Sodium/hydrogen exchanger 3 (Rattus norvegicus, UniProt P26433); experiment: Inhibition of rat NHE3
Sequence of Sodium/hydrogen exchanger 3 (P26433 whole entry): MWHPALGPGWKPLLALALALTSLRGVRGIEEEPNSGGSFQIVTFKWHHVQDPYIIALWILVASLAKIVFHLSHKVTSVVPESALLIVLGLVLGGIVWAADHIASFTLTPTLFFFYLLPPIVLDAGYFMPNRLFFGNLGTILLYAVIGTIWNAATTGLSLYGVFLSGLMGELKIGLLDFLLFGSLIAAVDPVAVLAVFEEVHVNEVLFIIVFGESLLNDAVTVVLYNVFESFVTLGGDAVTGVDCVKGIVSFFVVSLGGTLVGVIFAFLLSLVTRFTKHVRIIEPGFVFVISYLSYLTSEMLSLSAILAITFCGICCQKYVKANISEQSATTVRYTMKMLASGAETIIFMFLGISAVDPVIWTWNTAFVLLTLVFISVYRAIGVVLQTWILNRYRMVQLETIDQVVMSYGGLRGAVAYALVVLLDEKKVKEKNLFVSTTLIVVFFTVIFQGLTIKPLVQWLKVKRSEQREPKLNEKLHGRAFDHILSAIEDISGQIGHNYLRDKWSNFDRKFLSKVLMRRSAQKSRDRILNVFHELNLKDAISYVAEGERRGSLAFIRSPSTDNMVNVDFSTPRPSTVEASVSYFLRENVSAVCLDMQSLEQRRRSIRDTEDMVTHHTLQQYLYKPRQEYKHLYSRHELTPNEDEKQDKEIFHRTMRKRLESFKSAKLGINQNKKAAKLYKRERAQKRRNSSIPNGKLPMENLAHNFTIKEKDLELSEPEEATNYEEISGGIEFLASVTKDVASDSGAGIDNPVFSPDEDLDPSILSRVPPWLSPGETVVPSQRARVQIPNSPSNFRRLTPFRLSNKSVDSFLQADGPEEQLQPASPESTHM

[10] = biological target: Sodium/hydrogen exchanger 1 (Rattus norvegicus, UniProt P26431); experiment: Inhibition of rat NHE1
Sequence of Sodium/hydrogen exchanger 1 (Rattus norvegicus, UniProt P26431) (P26431 whole entry): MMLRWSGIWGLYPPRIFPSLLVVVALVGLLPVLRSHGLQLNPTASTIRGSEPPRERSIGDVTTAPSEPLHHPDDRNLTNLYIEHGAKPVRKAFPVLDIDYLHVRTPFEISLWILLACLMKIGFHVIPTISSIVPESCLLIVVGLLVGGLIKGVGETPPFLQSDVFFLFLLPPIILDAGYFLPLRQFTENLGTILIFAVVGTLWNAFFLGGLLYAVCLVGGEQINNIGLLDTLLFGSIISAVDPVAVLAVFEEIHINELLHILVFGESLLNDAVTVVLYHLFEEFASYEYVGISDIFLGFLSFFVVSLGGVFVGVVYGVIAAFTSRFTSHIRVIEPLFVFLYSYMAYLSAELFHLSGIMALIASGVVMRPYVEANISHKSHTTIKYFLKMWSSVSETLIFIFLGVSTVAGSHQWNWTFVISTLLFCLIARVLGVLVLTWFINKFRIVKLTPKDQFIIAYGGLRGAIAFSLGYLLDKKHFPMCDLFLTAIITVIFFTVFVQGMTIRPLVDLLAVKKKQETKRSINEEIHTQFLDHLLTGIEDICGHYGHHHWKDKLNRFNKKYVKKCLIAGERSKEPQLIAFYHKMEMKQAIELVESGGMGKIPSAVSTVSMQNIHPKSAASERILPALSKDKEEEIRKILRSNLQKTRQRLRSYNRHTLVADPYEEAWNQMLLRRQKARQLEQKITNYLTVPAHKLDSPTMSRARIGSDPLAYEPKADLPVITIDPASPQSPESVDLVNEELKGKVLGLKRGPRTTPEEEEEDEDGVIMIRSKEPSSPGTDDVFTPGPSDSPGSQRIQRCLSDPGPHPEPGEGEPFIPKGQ

[11] = biological target: T2, Sodium/hydrogen exchanger 5 (Homo sapiens, UniProt Q14940); experiment: Inhibition of NHE5 (unknown origin)
T2 sequence (Q14940 whole entry): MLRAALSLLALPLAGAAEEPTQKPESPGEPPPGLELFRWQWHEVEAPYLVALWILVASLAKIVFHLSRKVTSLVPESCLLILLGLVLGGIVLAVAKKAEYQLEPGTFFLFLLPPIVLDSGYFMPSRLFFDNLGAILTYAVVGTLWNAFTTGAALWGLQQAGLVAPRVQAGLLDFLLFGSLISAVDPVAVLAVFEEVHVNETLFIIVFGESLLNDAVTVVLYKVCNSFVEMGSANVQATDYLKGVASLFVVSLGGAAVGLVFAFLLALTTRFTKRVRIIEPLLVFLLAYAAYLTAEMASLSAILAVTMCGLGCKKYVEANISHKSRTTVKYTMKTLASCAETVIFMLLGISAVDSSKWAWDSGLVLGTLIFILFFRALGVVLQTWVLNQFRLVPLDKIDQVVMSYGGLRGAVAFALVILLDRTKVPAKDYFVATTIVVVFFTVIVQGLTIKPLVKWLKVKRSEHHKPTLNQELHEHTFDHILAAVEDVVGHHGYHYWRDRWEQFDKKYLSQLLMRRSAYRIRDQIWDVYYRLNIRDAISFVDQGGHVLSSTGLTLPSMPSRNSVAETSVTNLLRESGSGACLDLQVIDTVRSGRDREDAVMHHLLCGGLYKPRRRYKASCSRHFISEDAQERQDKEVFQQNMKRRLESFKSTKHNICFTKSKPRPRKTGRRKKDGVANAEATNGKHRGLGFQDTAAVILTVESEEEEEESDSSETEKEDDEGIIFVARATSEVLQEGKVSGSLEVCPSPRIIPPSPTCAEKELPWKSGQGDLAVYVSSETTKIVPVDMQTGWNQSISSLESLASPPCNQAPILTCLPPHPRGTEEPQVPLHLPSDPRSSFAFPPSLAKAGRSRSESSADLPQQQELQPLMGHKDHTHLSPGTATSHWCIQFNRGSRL

[12] = biological target: Sodium/hydrogen exchanger 1 (Oryctolagus cuniculus, UniProt P23791); experiment: Inhibition of rabbit NHE1
Sequence of Sodium/hydrogen exchanger 1 (Oryctolagus cuniculus, UniProt P23791) (P23791 whole entry): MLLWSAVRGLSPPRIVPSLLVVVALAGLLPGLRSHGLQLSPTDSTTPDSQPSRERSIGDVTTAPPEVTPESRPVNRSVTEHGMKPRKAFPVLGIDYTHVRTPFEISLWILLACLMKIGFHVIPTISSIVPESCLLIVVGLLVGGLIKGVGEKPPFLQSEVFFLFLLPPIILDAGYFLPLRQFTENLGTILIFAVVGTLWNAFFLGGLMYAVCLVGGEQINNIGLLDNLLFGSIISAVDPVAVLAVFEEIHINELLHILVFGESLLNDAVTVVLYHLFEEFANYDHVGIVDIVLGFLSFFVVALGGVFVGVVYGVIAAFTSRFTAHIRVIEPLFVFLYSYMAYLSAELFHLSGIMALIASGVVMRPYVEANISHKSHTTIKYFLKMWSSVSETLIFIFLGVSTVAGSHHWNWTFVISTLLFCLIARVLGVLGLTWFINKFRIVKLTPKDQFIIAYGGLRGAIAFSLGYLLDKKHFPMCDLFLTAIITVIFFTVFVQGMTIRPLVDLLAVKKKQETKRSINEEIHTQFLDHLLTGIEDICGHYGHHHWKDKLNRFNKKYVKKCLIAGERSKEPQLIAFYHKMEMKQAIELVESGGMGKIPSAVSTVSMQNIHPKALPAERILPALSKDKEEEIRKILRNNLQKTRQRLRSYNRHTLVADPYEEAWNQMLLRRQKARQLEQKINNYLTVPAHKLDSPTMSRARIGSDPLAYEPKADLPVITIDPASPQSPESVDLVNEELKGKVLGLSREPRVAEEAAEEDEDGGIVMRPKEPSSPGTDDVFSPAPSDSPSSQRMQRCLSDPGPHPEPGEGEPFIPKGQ

Cc1ccccc1N1C(=O)c2cc(S(N)(=O)=O)c(Cl)cc2NC1C (configuration not stated) [METOLAZONE]
bioavailability [1]: 64%

CCN1CCCC1CNC(=O)c1cc(S(N)(=O)=O)ccc1OC (configuration not stated) [SULPIRIDE]
bioavailability [1]: 36%

C/C(=C\c1cccc(/C=C(\C)C(=O)NC(=N)N)c1)C(=O)N=C(N)N
Ratio IC50 (Homo sapiens): > 500

CN1Cc2c(Cl)cc(Cl)cc2[C@@H](c2cccc(S(=O)(=O)NCCOCCOCCNC(=O)NCCCCNC(=O)NCCOCCOCCNS(=O)(=O)c3cccc([C@@H]4CN(C)Cc5c(Cl)cc(Cl)cc54)c3)c2)C1
inhibition (Rattus norvegicus [2]): inactive

CN1Cc2c(Cl)cc(Cl)cc2[C@H](c2cccc(S(=O)(=O)NCCOCCOCCNC(=O)NCCCCNC(=O)NCCOCCOCCNS(=O)(=O)c3cccc([C@@H]4CN(C)Cc5c(Cl)cc(Cl)cc54)c3)c2)C1
Activity (Rattus norvegicus [3]): Active | Activity (Rattus norvegicus [4]): Active

CN1Cc2c(Cl)cc(Cl)cc2[C@H](c2cccc(S(=O)(=O)NCCOCCOCCNC(=O)CN3CCN(CC(=O)NCCOCCOCCOCCNS(=O)(=O)c4cccc([C@@H]5CN(C)Cc6c(Cl)cc(Cl)cc65)c4)CCN(CC(=O)NCCOCCOCCOCCNS(=O)(=O)c4cccc([C@@H]5CNCc6c(Cl)cc(Cl)cc65)c4)CCN(CC(=O)NCCOCCOCCOCCNS(=O)(=O)c4cccc([C@@H]5CN(C)Cc6c(Cl)cc(Cl)cc65)c4)CC3)c2)C1
Activity (Rattus norvegicus [5]): 82%

CC(=O)Nc1ccc(OCC(O)CNC(C)C)cc1 (configuration not stated) [PRACTOLOL]
bioavailability [1]: 95%

CN1Cc2c(Cl)cc(Cl)cc2[C@H](c2cccc(S(=O)(=O)NCCOCCOCCNC(=O)CCC(CCC(=O)NCCOCCOCCNS(=O)(=O)c3cccc([C@@H]4CN(C)Cc5c(Cl)cc(Cl)cc54)c3)(CC(=O)NCCOCCOCCNS(=O)(=O)c3cccc([C@@H]4CN(C)Cc5c(Cl)cc(Cl)cc54)c3)NC(=O)CCC(=O)O)c2)C1
Activity (Rattus norvegicus [6]): 49% | Activity (Rattus norvegicus [7]): 12%

O=C(NCCCCNC(=O)NCCOCCOCCNS(=O)(=O)c1ccc(O[C@H]2c3cc(Cl)cc(Cl)c3C[C@@H]2N2CC[C@@H](O)C2)cc1)NCCOCCOCCNS(=O)(=O)c1ccc(O[C@H]2c3cc(Cl)cc(F)c3C[C@@H]2N2CC[C@@H](O)C2)cc1
Activity (Rattus norvegicus [5]): 104%

N=C(N)NC(=O)c1nc(Cl)c(N)nc1N [AMILORIDE]
IC50 [8]: 1000 nM | IC50 [9]: > 100000 nM | IC50 [10]: 1000 to 1600 nM | IC50 [11]: 21000 nM

O=C(O)c1cc(/N=N/c2ccc(S(=O)(=O)Nc3ccccn3)cc2)ccc1O [SULFASALAZINE]
bioavailability [1]: 12%

CN1Cc2c(Cl)cc(Cl)cc2[C@@H](c2cccc(S(=O)(=O)NCCOCCOCCNC(=O)N(C)CCCN(CCCN(C)C(=O)NCCOCCOCCNS(=O)(=O)c3cccc([C@@H]4CN(C)Cc5c(Cl)cc(Cl)cc54)c3)C(=O)NCCOCCOCCNS(=O)(=O)c3cccc([C@@H]4CN(C)Cc5c(Cl)cc(Cl)cc54)c3)c2)C1
Activity (Rattus norvegicus [6]): 88% | Activity (Rattus norvegicus [5]): 28% | Activity (Rattus norvegicus [7]): 55%

CN1Cc2c(Cl)cc(Cl)cc2[C@H](c2ccc(S(=O)(=O)N(C)CCOCCOCCNC(=O)CCN(CCC(=O)NCCOCCOCCN(C)S(=O)(=O)c3cccc([C@@H]4CN(C)Cc5c(Cl)cc(Cl)cc54)c3)CCC(=O)NCCOCCOCCN(C)S(=O)(=O)c3cccc([C@@H]4CN(C)Cc5c(Cl)cc(Cl)cc54)c3)cc2)C1
Activity (Rattus norvegicus [7]): 64%

CC(=O)C(CCNC(=O)NCCOCCOCCNS(=O)(=O)c1cccc([C@@H]2CN(C)Cc3c(Cl)cc(Cl)cc32)c1)(CCNC(=O)NCCOCCOCCNS(=O)(=O)c1cccc([C@@H]2CN(C)Cc3c(Cl)cc(Cl)cc32)c1)CCNC(=O)NCCOCCOCCNS(=O)(=O)c1cccc([C@@H]2CN(C)Cc3c(Cl)cc(Cl)cc32)c1
Activity (Rattus norvegicus [7]): 42%

CN1Cc2c(Cl)cc(Cl)cc2[C@H](c2cccc(S(=O)(=O)NCCOCCNC(=O)CCC(CCC(=O)NCCOCCOCCNS(=O)(=O)c3cccc([C@@H]4CN(C)Cc5c(Cl)cc(Cl)cc54)c3)(CCC(=O)NCCOCCOCCNS(=O)(=O)c3cccc([C@@H]4CN(C)Cc5c(Cl)cc(Cl)cc54)c3)NC(=O)[C@H]3CCCC[C@@H]3C(=O)O)c2)C1
Activity (Rattus norvegicus [7]): 63%

OC[C@@H](O)[C@@H](O)[C@H](O)[C@H](O)CO [MANNITOL]
bioavailability [1]: 26%

Cc1cc(=O)n(-c2ccccc2)n1C [ANTIPYRINE]
bioavailability [1]: 97%

CCCCCCCCOCCOCCOCCOCCCOCCOC(=O)NCCOCCOCCOCCNS(=O)(=O)c1cccc([C@@H]2CN(C)Cc3c(Cl)cc(Cl)cc32)c1
Activity (Rattus norvegicus [5]): 86%

CN1Cc2c(Cl)cc(Cl)cc2[C@@H](c2ccc(S(=O)(=O)NCCOCCOCCNC(=O)NCCCCNC(=O)NCCOCCOCCNS(=O)(=O)c3cccc([C@@H]4CN(C)Cc5c(Cl)cc(Cl)cc54)c3)cc2)C1.Cl.Cl
Activity (Rattus norvegicus [5]): 68%

O=C(O)P(=O)(O)O [FOSCARNET]
bioavailability [1]: 17%

C=CCc1ccccc1OCC(O)CNC(C)C (configuration not stated) [ALPRENOLOL]
bioavailability [1]: 96%

C=CCOc1ccccc1OCC(O)CNC(C)C (configuration not stated) [OXPRENOLOL]
bioavailability [1]: 97%

CN1Cc2c(Cl)cc(Cl)cc2[C@H](c2ccc(S(=O)(=O)NCCOCCOCCNC(=O)NCCCCNC(=O)NCCOCCOCCNS(=O)(=O)c3cccc([C@@H]4CN(C)Cc5c(Cl)cc(Cl)cc54)c3)cc2)C1.Cl.Cl
Activity (Rattus norvegicus [5]): 90%

CC(C)NCC(O)COc1cccc2[nH]ccc12 (configuration not stated) [PINDOLOL]
bioavailability [1]: 92%

OC[C@H]1O[C@H](OC[C@H]2O[C@H](O[C@]3(CO)O[C@H](CO)[C@@H](O)[C@@H]3O)[C@H](O)[C@@H](O)[C@@H]2O)[C@H](O)[C@@H](O)[C@H]1O [RAFFINOSE]
bioavailability [1]: 0.3%

CN1Cc2c(Cl)cc(Cl)cc2[C@H](c2ccc(S(=O)(=O)NCCOCCOCCNCCCC(CCC(=O)NCCOCCOCCNS(=O)(=O)c3cccc([C@@H]4CN(C)Cc5c(Cl)cc(Cl)cc54)c3)(CCC(=O)NCCOCCOCCNS(=O)(=O)c3cccc([C@@H]4CN(C)Cc5c(Cl)cc(Cl)cc54)c3)NC(=O)N3CCN(CCOCCO)CC3)cc2)C1
Activity (Rattus norvegicus [7]): 31%

CCN(c1nc(N)c(C(=O)NC(=N)N)nc1Cl)C(C)C [5-(N-ETHYL-N-ISOPROPYL)AMILORIDE]
IC50 [8]: 500 nM | IC50 [9]: 2400 nM | IC50 [10]: 10 nM | IC50 [11]: 420 nM | IC50 [12]: 20 nM

OC[C@H]1O[C@@H](O[C@@H]2[C@@H](CO)O[C@](O)(CO)[C@H]2O)[C@H](O)[C@@H](O)[C@H]1O (mixture of isomers) [LACTULOSE]
bioavailability [1]: 0.6%

O=C(O)c1cc(/N=N/c2ccc(O)c(C(=O)O)c2)ccc1O [OLSALAZINE]
bioavailability [1]: 2.3%

NC[C@H]1CC[C@H](C(=O)O)CC1 [TRANEXAMIC ACID]
bioavailability [1]: 55%

CN1Cc2c(Cl)cc(Cl)cc2[C@H](c2cccc(S(=O)(=O)NCCOCCOCCNC(=O)NCCN(CCNC(=O)NCCOCCOCCNS(=O)(=O)c3cccc([C@@H]4CN(C)Cc5c(Cl)cc(Cl)cc54)c3)C(=O)CCCOCCOCCOCCOCCC(=O)N(CCNC(=O)NCCOCCOCCNS(=O)(=O)c3cccc([C@@H]4CN(C)Cc5c(Cl)cc(Cl)cc54)c3)CCNC(=O)NCCOCCOCCNS(=O)(=O)c3cccc([C@@H]4CN(C)Cc5c(Cl)cc(Cl)cc54)c3)c2)C1
Activity (Rattus norvegicus [5]): 47%
